Data published in patent US12686704B2, “Procoagulant peptides and use thereof” (RAMBAM MED-TECH LTD., priority 2021, dated 2026).

Legend:
[1] = system: ICR mice; test: Wound healing after full thickness skin incision in ICR mice; format: in vivo, mouse; details: for number of capillaries (vessels) in wound skin tissue: H&E staining at end of experiment, FIGS. 4D-4E; for wound healing (wound size): S.C. opposite to the wound on alternate days for one week, FIGS. 4A-4B
Experimental: FIGS. 4A-4E include images, micrographs, and graphs showing that that modified heparanase procoagulant peptides of the invention enhance wound healing. (4A) Full thickness incision of 10 mm was made in the back skin of ICR (normal, no genetic background) mice. On alternate days, for one week after surgery, peptide 16 or peptide 16AC was injected subcutaneously (S.C.) opposite to the wound at the indicated dose. Control group was injected the vehicle (PBS). […] Similar results were observed when the peptides were topically applied as a cream preparation (4C). n—number of mice. Mann-Whitney U test was used. Results represent mean±SD, **p<0.001, ***p<0.0001. (4D) At the end of the experiment the mice were sacrificed and the skin tissue from the wound site excised, and histologically analyzed using hematoxylin and eosin (H&E) staining. Representative images are shown. […] The number of capillaries presented reflects the median and range of five different fields. Mann-Whitney U test was used. Results represent mean±SD, *p<0.01, **p<0.001.
Full thickness incision of 10 mm was made in the back skin of ICR (normal, no genetic background) mice. On alternate days, for one week after surgery, peptide 16 was injected sub-cutaneous (S.C.) opposite to the wound at the indicated dose. Control group was injected the vehicle (PBS). […] Similar results were obtained when the peptides were applied topically in a cream preparation (FIG. 4C). At the end of the experiment the mice were sacrificed and the skin tissue from the wound site was analyzed using H&E staining.

[2] = system: HUVEC cells; test: HUVEC migration, scratch (artificial gap) assay; format: cell-based, human; details: 10 μg/ml; 4 hours; compared to the control and the non-modified peptide 16
Experimental: FIG. 11 includes micrographs showing that procoagulant peptides increase endothelial cells migration. HUVEC cells were seeded in 35 mm dishes. At confluence of 90%, artificial gap was created using 1,000-μl standard pipette tip. Plate was washed twice with PBS to remove cell debris and incubated with either peptide 16 or 16AC (10 μg/ml). Representative photos of the scratched area after 4 hours are presented. Images were visualized through ×50 magnitude, with 0.82 MDC objective lens, captured with a Nikon E995 digital camera (Nikon, Tokyo, Japan), and processed with Adobe Photoshop software (Adobe Systems, San Jose, CA, USA).
Briefly, HUVEC cells were seeded in 35 mm dishes. At confluence of 90%, artificial gap was created using 1,000 μl standard pipette tip. Plate was washed twice with PBS to remove cell debris and incubated with either peptide 16 or 16AC (10 μg/ml).

[3] = system: HEK-293 cells with full length TF (TF) or truncated TF; test: p-p38 signaling in TF-transfected HEK-293 cells (western blot); format: cell-based; details: 2 hours; cells with truncated TF devoid of the intracellular part
Experimental: FIG. 12 includes a vertical bar graph and a micrograph of a western blot analysis. Procoagulant peptide 16AC was added for 2 hours to transfected HEK-293 cells with full length TF (TF) or truncated TF devoid of the intracellular part (ΔTF). […] Control—vector only (Vo); transfection with the empty plasmid, with no additional DNA.
Additionally, the inventor explored binding interaction between the procoagulant peptide of the invention and TF. Briefly, the procoagulant peptide 16AC was added for 2 hours to transfected HEK-293 cells with full length TF (TF) or truncated TF devoid of the intracellular part (ATF).

Row | Substance | number of capillaries (vessels) in wound skin tissue [1] | wound healing (wound size) [1] | number of capillaries (vessels) in wound skin tissue ([1]; listed as peptide 16AC) | migrating HUVEC cells [2] | increase in p-p38 intracellular signaling [3]
1 | GSKRRKLRVYLHCT [Peptide 16, peptide comprising the procoagulant domain of heparanase, non-modified] | significant increase of capillaries | significantly enhanced wound healing |  |  | 
2 | acetyl-GSKRRKLRVYLHCT-amid (Ac-GSKRRKLRVYLHCT-NH2) [Peptide 16AC, peptide 16 comprising a C-terminal amid group and an N-terminal acetyl group] | significantly better effect | significantly better effect on wound size | significant increase of capillaries | substantial increase in migrating HUVEC cells | not observed
